According to article PMC5218480 (PLoS ONE, 2017):

Test system: MV-4-11 cells
Test: Gene expression microarray analysis (Affymetrix PrimeView) and GSEA
Assay type: cell-based, human
Set-up: RFU PODN (11730768_x_at) / Fold change /veh PODN (11730768_x_at) / RFU LINC00158 (11744669_a_at) / Fold change /veh LINC00158 (11744669_a_at) / RFU DUSP10 (11751237_a_at) / Fold change /veh DUSP10 (11751237_a_at) / RFU ID3 (11757404_x_at) / Fold change /veh ID3 (11757404_x_at) / RFU PLEKHG5 (11737974_s_at) / Fold change /veh PLEKHG5 (11737974_s_at) / RFU LRRC4B (11730491_at) / Fold change /veh LRRC4B (11730491_at) / RFU GIMAP4 (11747438_a_at) / Fold change /veh GIMAP4 (11747438_a_at) / RFU KRT8 (11758183_x_at) / Fold change /veh KRT8 (11758183_x_at) / RFU CNN1 (11734310_a_at) / Fold change /veh CNN1 (11734310_a_at) / RFU VPS37D (11726825_at) / Fold change /veh VPS37D (11726825_at) / RFU C10orf10 (11716522_x_at) / Fold change /veh C10orf10 (11716522_x_at) / RFU KIR2DL2 /// KIR2DL4 /// KIR2DL5A /// KIR2DL5B /// KIR2DS1 /// KIR2DS2 /// KIR2DS3 /// KIR2DS4 /// KIR3DL3 /// KIR3DL3 /// KIR3DS1 (11738374_at) / Fold change /veh KIR2DL2 /// KIR2DL4 /// KIR2DL5A /// KIR2DL5B /// KIR2DS1 /// KIR2DS2 /// KIR2DS3 /// KIR2DS4 /// KIR3DL3 /// KIR3DL3 /// KIR3DS1 (11738374_at) / RFU C1QL1 (11718748_at) / Fold change /veh C1QL1 (11718748_at) / RFU TMPRSS4 (11747572_a_at) / Fold change /veh TMPRSS4 (11747572_a_at) / RFU HAMP (11756126_x_at) / Fold change /veh HAMP (11756126_x_at) / RFU RNFT2 (11725882_a_at) / Fold change /veh RNFT2 (11725882_a_at) / RFU NR4A2 (11747474_a_at) / Fold change /veh NR4A2 (11747474_a_at) / RFU ABCC12 (11746883_a_at) / Fold change /veh ABCC12 (11746883_a_at) / RFU TMEM136 (11760407_x_at) / Fold change /veh TMEM136 (11760407_x_at) / RFU CLDN22 /// WWC2 (11732394_at) / Fold change /veh CLDN22 /// WWC2 (11732394_at) / RFU HLA-DPB1 (11760878_x_at) / Fold change /veh HLA-DPB1 (11760878_x_at) / RFU SPINT1 (11716480_a_at) / Fold change /veh SPINT1 (11716480_a_at) / RFU GAP43 (11754022_s_at) / Fold change /veh GAP43 (11754022_s_at) / RFU A4GNT (11735810_at) / Fold change /veh A4GNT (11735810_at) / RFU PRB3 (11715151_x_at) / Fold change /veh PRB3 (11715151_x_at) / RFU TUBB4B (11761932_at) / Fold change /veh TUBB4B (11761932_at) / RFU CAPN14 (11732068_a_at) / Fold change /veh CAPN14 (11732068_a_at) / RFU TMCC2 (11721928_a_at) / Fold change /veh TMCC2 (11721928_a_at) / RFU IRGQ (11745062_a_at) / Fold change /veh IRGQ (11745062_a_at) / RFU FAM174B (11720279_a_at) / Fold change /veh FAM174B (11720279_a_at) / RFU TMPRSS4 (11748680_a_at) / Fold change /veh TMPRSS4 (11748680_a_at) / RFU FAM212B (11763350_a_at) / Fold change /veh FAM212B (11763350_a_at) / RFU PLEKHG5 (11743358_a_at) / Fold change /veh PLEKHG5 (11743358_a_at) / RFU ZSCAN30 (11745921_a_at) / Fold change /veh ZSCAN30 (11745921_a_at) / RFU CMKLR1 (11741424_a_at) / Fold change /veh CMKLR1 (11741424_a_at) / RFU LOC101060620 /// MAPK8IP1 (11723275_at) / Fold change /veh LOC101060620 /// MAPK8IP1 (11723275_at) / RFU SPTSSB (11747773_x_at) / Fold change /veh SPTSSB (11747773_x_at) / RFU PRSS12 (11739890_at) / Fold change /veh PRSS12 (11739890_at) / RFU BIN1 (11741810_x_at) / Fold change /veh BIN1 (11741810_x_at) / RFU WNT11 (11732464_a_at) / Fold change /veh WNT11 (11732464_a_at) / RFU C10orf10 (11716521_a_at) / Fold change /veh C10orf10 (11716521_a_at) / RFU C5orf56 (11738089_at) / Fold change /veh C5orf56 (11738089_at) / RFU CYB561 (11721691_x_at) / Fold change /veh CYB561 (11721691_x_at) / RFU ANKRD19P (11752326_a_at) / Fold change /veh ANKRD19P (11752326_a_at) / RFU OR2T12 /// OR2T33 /// OR2T8 (11738714_s_at) / Fold change /veh OR2T12 /// OR2T33 /// OR2T8 (11738714_s_at) / RFU VCAN (11748164_a_at) / Fold change /veh VCAN (11748164_a_at) / RFU JSRP1 (11732532_at) / Fold change /veh JSRP1 (11732532_at) / RFU KRTAP10-11 (11738290_x_at) / Fold change /veh KRTAP10-11 (11738290_x_at) / RFU MYO3A (11730013_a_at) / Fold change /veh MYO3A (11730013_a_at) / RFU EBF3 (11725865_a_at) / Fold change /veh EBF3 (11725865_a_at) / RFU CAMK2N1 (11719241_x_at) / Fold change /veh CAMK2N1 (11719241_x_at) / RFU C5orf56 (11738088_a_at) / Fold change /veh C5orf56 (11738088_a_at) / RFU OLFML3 (11715873_a_at) / Fold change /veh OLFML3 (11715873_a_at) / RFU LOC100653217 /// NTM (11731650_a_at) / Fold change /veh LOC100653217 /// NTM (11731650_a_at) / RFU MAPK11 (11762145_a_at) / Fold change /veh MAPK11 (11762145_a_at) / RFU FIZ1 (11724087_x_at) / Fold change /veh FIZ1 (11724087_x_at) / RFU OASL (11726364_x_at) / Fold change /veh OASL (11726364_x_at) / RFU SOX15 (11748057_x_at) / Fold change /veh SOX15 (11748057_x_at) / RFU CD79A (11719716_a_at) / Fold change /veh CD79A (11719716_a_at) / RFU HIST1H1D (11736915_at) / Fold change /veh HIST1H1D (11736915_at) / RFU CASKIN2 (11723855_a_at) / Fold change /veh CASKIN2 (11723855_a_at) / RFU LOC730098 (11760151_x_at) / Fold change /veh LOC730098 (11760151_x_at) / RFU OR4N2 (11742367_at) / Fold change /veh OR4N2 (11742367_at) / RFU PRRT2 (11749266_a_at) / Fold change /veh PRRT2 (11749266_a_at) / RFU SNX32 (11753110_a_at) / Fold change /veh SNX32 (11753110_a_at) / RFU CDHR5 (11726645_a_at) / Fold change /veh CDHR5 (11726645_a_at) / RFU RCAN1 (11760418_a_at) / Fold change /veh RCAN1 (11760418_a_at) / RFU FAM167A (11723789_a_at) / Fold change /veh FAM167A (11723789_a_at) / RFU FAM26E (11764081_at) / Fold change /veh FAM26E (11764081_at) / RFU ISYNA1 (11749810_s_at) / Fold change /veh ISYNA1 (11749810_s_at) / RFU ACY1 (11761880_at) / Fold change /veh ACY1 (11761880_at) / RFU 11764098_at / Fold change /veh 11764098_at / RFU SAMD14 (11745864_x_at) / Fold change /veh SAMD14 (11745864_x_at) / RFU NPB (11741838_a_at) / Fold change /veh NPB (11741838_a_at) / RFU TMPRSS6 (11731388_a_at) / Fold change /veh TMPRSS6 (11731388_a_at) / RFU KRTAP10-2 (11738614_at) / Fold change /veh KRTAP10-2 (11738614_at) / RFU ARHGAP8 /// PRR5-ARHGAP8 (11727945_x_at) / Fold change /veh ARHGAP8 /// PRR5-ARHGAP8 (11727945_x_at) / RFU KRTAP5-7 /// NADSYN1 (11734609_at) / Fold change /veh KRTAP5-7 /// NADSYN1 (11734609_at) / RFU RASL12 (11751679_a_at) / Fold change /veh RASL12 (11751679_a_at) / RFU CDKN2B (11736163_a_at) / Fold change /veh CDKN2B (11736163_a_at) / RFU PRF1 (11729649_at) / Fold change /veh PRF1 (11729649_at) / RFU, ZNF638 /// ZNF638-IT1 / Fold change vs veh, ZNF638 /// ZNF638-IT1 / RFU, PANK3 / Fold change vs veh, PANK3 / RFU, SH3YL1 / Fold change vs veh, SH3YL1 / RFU, ZEB2 / Fold change vs veh, ZEB2 / RFU, NRIP1 / Fold change vs veh, NRIP1 / RFU, PTTG1IP / Fold change vs veh, PTTG1IP / RFU, CAPN2 / Fold change vs veh, CAPN2 / RFU, MED14 / Fold change vs veh, MED14 / RFU, SNORA58 / Fold change vs veh, SNORA58 / RFU, C1orf63 / Fold change vs veh, C1orf63 / RFU, LRRFIP1 / Fold change vs veh, LRRFIP1 / RFU, NDUFAF7 / Fold change vs veh, NDUFAF7 / RFU, SLC12A2 / Fold change vs veh, SLC12A2 / RFU, IBTK / Fold change vs veh, IBTK / RFU, ESF1 / Fold change vs veh, ESF1 / Fold change vs veh, TMEM50B / RFU, TAOK1 / Fold change vs veh, TAOK1 / RFU, ACBD3 / Fold change vs veh, ACBD3 / RFU, TMA16 / Fold change vs veh, TMA16 / RFU, RWDD3 / Fold change vs veh, RWDD3 / RFU, BCAT1 / Fold change vs veh, BCAT1 / RFU, EDEM3 / Fold change vs veh, EDEM3 / RFU, TMEM33 / Fold change vs veh, TMEM33 / RFU, WDR75 / Fold change vs veh, WDR75 / RFU, AHCTF1 / Fold change vs veh, AHCTF1 / RFU, TFRC / Fold change vs veh, TFRC / RFU, ZDHHC17 / Fold change vs veh, ZDHHC17 / RFU, NOM1 / Fold change vs veh, NOM1 / RFU, ARL8B / Fold change vs veh, ARL8B / RFU, ZBTB11 / Fold change vs veh, ZBTB11 / RFU, TAMM41 / Fold change vs veh, TAMM41 / RFU, KIAA1704 /// LOC100996395 / Fold change vs veh, KIAA1704 /// LOC100996395 / RFU, ING1 / Fold change vs veh, ING1 / RFU, TRMT61B / Fold change vs veh, TRMT61B / RFU, FUBP3 / Fold change vs veh, FUBP3 / RFU, TP53 / Fold change vs veh, TP53 / RFU, TNKS2 / Fold change vs veh, TNKS2 / RFU, ZFP14 / Fold change vs veh, ZFP14 / RFU, ACTR2 / Fold change vs veh, ACTR2 / RFU, PPP3R1 / Fold change vs veh, PPP3R1 / RFU, PIK3R1 / Fold change vs veh, PIK3R1 / RFU, HNRNPA1 / Fold change vs veh, HNRNPA1 / RFU, RNF170 / Fold change vs veh, RNF170 / RFU, ZNF28 / Fold change vs veh, ZNF28 / RFU, RNGTT / Fold change vs veh, RNGTT / RFU, OGT / Fold change vs veh, OGT / RFU, BRD1 / Fold change vs veh, BRD1 / RFU, MARS / Fold change vs veh, MARS / RFU, ZNF655 / Fold change vs veh, ZNF655 / RFU, FAHD1 / Fold change vs veh, FAHD1 / RFU, BDP1 / Fold change vs veh, BDP1 / RFU, LRRCC1 / Fold change vs veh, LRRCC1 / RFU, ARID1A / Fold change vs veh, ARID1A / RFU, ZNF146 / Fold change vs veh, ZNF146 / RFU, ZNF330 / Fold change vs veh, ZNF330 / RFU, GPN3 / Fold change vs veh, GPN3 / RFU, C9orf123 / Fold change vs veh, C9orf123 / RFU, N4BP2L2 / Fold change vs veh, N4BP2L2 / RFU, ARFIP1 / Fold change vs veh, ARFIP1 / RFU, FAM179B / Fold change vs veh, FAM179B / RFU, BCL10 / Fold change vs veh, BCL10 / RFU, UHRF1BP1L / Fold change vs veh, UHRF1BP1L / RFU, BET1 / Fold change vs veh, BET1 / RFU, CNOT2 / Fold change vs veh, CNOT2 / RFU, ZNF268 / Fold change vs veh, ZNF268 / Fold change vs veh, ZNF507 / RFU, DGCR2 / Fold change vs veh, DGCR2 / RFU, WDSUB1 / Fold change vs veh, WDSUB1 / Fold change vs veh, HSP90B1 /// MIR3652 / RFU, ADSS / Fold change vs veh, ADSS / RFU, GK / Fold change vs veh, GK / RFU, ZNF148 / Fold change vs veh, ZNF148 / RFU, TAF9 / Fold change vs veh, TAF9 / RFU, SLC1A5 / Fold change vs veh, SLC1A5 / RFU, SLMO2 / Fold change vs veh, SLMO2 / RFU, ABCC4 / Fold change vs veh, ABCC4 / RFU, LOC101060439 /// RAP1B / Fold change vs veh, LOC101060439 /// RAP1B / RFU, RFX7 / Fold change vs veh, RFX7 / RFU, GTPBP10 / Fold change vs veh, GTPBP10 / RFU, CNEP1R1 / Fold change vs veh, CNEP1R1 / RFU, BIVM-ERCC5 /// ERCC5 / Fold change vs veh, BIVM-ERCC5 /// ERCC5 / RFU, ILF3 / Fold change vs veh, ILF3 / RFU 11762660_at / Fold change /veh 11762660_at / RFU VCAN (11757783_s_at) / Fold change /veh VCAN (11757783_s_at) / RFU DDX43 (11728927_at) / Fold change /veh DDX43 (11728927_at) / RFU KRT8 (11758188_x_at) / Fold change /veh KRT8 (11758188_x_at) / RFU NKD1 (11759106_at) / Fold change /veh NKD1 (11759106_at) / RFU SRD5A1 (11742802_a_at) / Fold change /veh SRD5A1 (11742802_a_at) / RFU TPSAB1 /// TPSB2 (11721975_s_at) / Fold change /veh TPSAB1 /// TPSB2 (11721975_s_at) / RFU GSTM3 (11746129_a_at) / Fold change /veh GSTM3 (11746129_a_at) / RFU IL23R (11737362_x_at) / Fold change /veh IL23R (11737362_x_at) / RFU TMEM51 (11727254_a_at) / Fold change /veh TMEM51 (11727254_a_at) / RFU PIWIL2 (11732686_x_at) / Fold change /veh PIWIL2 (11732686_x_at) / RFU ORM1 (11744905_x_at) / Fold change /veh ORM1 (11744905_x_at) / RFU CCDC152 (11743942_at) / Fold change /veh CCDC152 (11743942_at) / RFU ECM1 (11717891_a_at) / Fold change /veh ECM1 (11717891_a_at) / RFU IL23R (11748794_a_at) / Fold change /veh IL23R (11748794_a_at) / RFU TNFAIP8L3 (11732012_x_at) / Fold change /veh TNFAIP8L3 (11732012_x_at) / RFU MBOAT4 (11741988_at) / Fold change /veh MBOAT4 (11741988_at) / RFU 11764193_at / Fold change /veh 11764193_at / RFU TMEM53 (11763286_at) / Fold change /veh TMEM53 (11763286_at) / RFU MAGEB2 (11727129_at) / Fold change /veh MAGEB2 (11727129_at) / RFU TMEM200A (11744735_a_at) / Fold change /veh TMEM200A (11744735_a_at) / RFU CCDC152 (11751479_a_at) / Fold change /veh CCDC152 (11751479_a_at) / RFU FAM211A (11726209_a_at) / Fold change /veh FAM211A (11726209_a_at) / RFU RGS16 (11746705_a_at) / Fold change /veh RGS16 (11746705_a_at) / RFU VCAN (11755009_s_at) / Fold change /veh VCAN (11755009_s_at) / RFU RHOB (11743442_s_at) / Fold change /veh RHOB (11743442_s_at) / RFU RGS16 (11720943_a_at) / Fold change /veh RGS16 (11720943_a_at) / RFU RGS16 (11720944_at) / Fold change /veh RGS16 (11720944_at) / RFU, VPS4B / Fold change vs veh, VPS4B / RFU, CREB1 / Fold change vs veh, CREB1 / RFU, DNAJC13 / Fold change vs veh, DNAJC13 / RFU, GNAQ / Fold change vs veh, GNAQ / RFU, CDK5R1 / Fold change vs veh, CDK5R1 / RFU, ZRANB3 / Fold change vs veh, ZRANB3 / RFU, CUL4A / Fold change vs veh, CUL4A / RFU, CCNY / Fold change vs veh, CCNY / RFU, UFL1 / Fold change vs veh, UFL1 / RFU, COG3 / Fold change vs veh, COG3 / RFU, DIAPH2 / Fold change vs veh, DIAPH2 / RFU, SKA2 / Fold change vs veh, SKA2 / RFU, AFF3 / Fold change vs veh, AFF3 / RFU, LMF1 / Fold change vs veh, LMF1 / RFU, IPO11 / Fold change vs veh, IPO11 / RFU, DFFB / Fold change vs veh, DFFB / RFU, FOXP1 / Fold change vs veh, FOXP1 / RFU, CARD8 / Fold change vs veh, CARD8 / RFU, STRN3 / Fold change vs veh, STRN3 / RFU, ADK / Fold change vs veh, ADK / RFU, RASSF2 / Fold change vs veh, RASSF2 / RFU, WIPF1 / Fold change vs veh, WIPF1 / RFU, LARP1B / Fold change vs veh, LARP1B / RFU, RASA1 / Fold change vs veh, RASA1 / RFU, RB1 / Fold change vs veh, RB1 / RFU, PPFIA1 / Fold change vs veh, PPFIA1 / RFU, MAT2A / Fold change vs veh, MAT2A / RFU, CCT5 / Fold change vs veh, CCT5 / RFU, WDR92 / Fold change vs veh, WDR92 / RFU, CUX1 / Fold change vs veh, CUX1 / RFU, TTC7A / Fold change vs veh, TTC7A / RFU, TMEM135 / Fold change vs veh, TMEM135 / RFU, DEPTOR / Fold change vs veh, DEPTOR / RFU, CPM / Fold change vs veh, CPM / RFU, DNAJB6 / Fold change vs veh, DNAJB6 / RFU, CACNA2D3 / Fold change vs veh, CACNA2D3 / RFU, DTX4 / Fold change vs veh, DTX4 / RFU, TFCP2 / Fold change vs veh, TFCP2 / RFU, GMCL1 /// GMCL1P1 / Fold change vs veh, GMCL1 /// GMCL1P1 / RFU, AEBP2 / Fold change vs veh, AEBP2 / RFU, SNHG1 /// SNORD22 /// SNORD25 /// SNORD26 /// SNORD27 /// SNORD28 /// SNORD29 /// SNORD31 / Fold change vs veh, SNHG1 /// SNORD22 /// SNORD25 /// SNORD26 /// SNORD27 /// SNORD28 /// SNORD29 /// SNORD31 / Fold change (Aza/veh), C12orf56 (ProbeSet 11735607_a_at) / Fold change (ACY-1035/veh), C12orf56 (ProbeSet 11735607_a_at) / Fold change (Aza/veh), FGFR1OP (ProbeSet 11751329_s_at) / Fold change (ACY-1035/veh), FGFR1OP (ProbeSet 11751329_s_at) / Fold change (Aza/veh), VPS36 (ProbeSet 11739960_a_at) / Fold change (ACY-1035/veh), VPS36 (ProbeSet 11739960_a_at) / RFU SYPL1 (11715823_x_at) / Fold change /veh SYPL1 (11715823_x_at) / RFU IGFBP7 (11715501_s_at) / Fold change /veh IGFBP7 (11715501_s_at) / RFU REEP3 (11722064_at) / Fold change /veh REEP3 (11722064_at) / RFU IGLL1 (11728026_x_at) / Fold change /veh IGLL1 (11728026_x_at): dose or concentration left out as unconfirmed
Conditions: MV-4-11 cells, 48 hours

For Nc1ncn([C@@H]2O[C@H](CO)[C@@H](O)[C@H]2O)c(=O)n1 [azacitidine], the “RFU 11764098_at” value was 18.12 RFU.
